PubChem BioAssay AID1963985 (Molecular Pharmacology Branch, DTP, NCI, 2024)

Tested on: 252836-082-R-J2-PDC tumor spheroids, viability
Experiment: Anticancer human tumor 252836-082-R-J2-PDC patient-derived head and neck squamous cell carcinoma cell line growth inhibition [PI3K]
Conditions: spheroids with HUVEC and MSC; for viability, T/C: stronger effect = lower value
Method in brief: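 High-throughput combination screen: PI3K inhibitors crossed with targeted small molecules on complex spheroids of tumor cells, HUVEC and MSCs at 37 degrees C, 5% CO2. Top concentration was at or near clinical Cmax (otherwise 10 microM), with half-log decrements.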
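Also: spheroids exposed to agents for seven days before readout.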
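For viability, T/C in this document: percent of vehicle DMSO control viability so 100% = untreated growth.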

## CCN1CCN(Cc2ccc(Nc3ncc(F)c(-c4cc(F)c5nc(C)n(C(C)C)c5c4)n3)nc2)CC1 + CC(Nc1ccc2c(c1)OCCn1cc(N3C(=O)OCC3C(F)F)nc1-2)C(N)=O
Curve of first compound, second compound 0.00316 µM
  IC50: > 1000 nM
Curve of first compound, second compound 0.01 µM
  IC50: > 1000 nM
Curve of first compound, second compound 0.0316 µM
  IC50: > 1000 nM
Curve of first compound, second compound 0.1 µM
  IC50: > 1000 nM
Curve of first compound, second compound 0.316 µM
  IC50: 36.1 nM
Curve of first compound, second compound 1 µM
  IC50: < 3.16 nM
Second compound 0.00316 µM, first compound 0.00316 µM
  viability, T/C: 87.8%
Second compound 0.00316 µM, first compound 0.01 µM
  viability, T/C: 86.1%
Second compound 0.00316 µM, first compound 0.0316 µM
  viability, T/C: 75.3%
Second compound 0.00316 µM, first compound 0.1 µM
  viability, T/C: 93.1%
Second compound 0.00316 µM, first compound 0.316 µM
  viability, T/C: 82.7%
Second compound 0.00316 µM, first compound 1 µM
  viability, T/C: 76.5%
Second compound 0.01 µM, first compound 0.00316 µM
  viability, T/C: 90.3%
Second compound 0.01 µM, first compound 0.01 µM
  viability, T/C: 82.5%
Second compound 0.01 µM, first compound 0.0316 µM
  viability, T/C: 94.4%
Second compound 0.01 µM, first compound 0.1 µM
  viability, T/C: 78.7%
Second compound 0.01 µM, first compound 0.316 µM
  viability, T/C: 90%
Second compound 0.01 µM, first compound 1 µM
  viability, T/C: 70.3%
Second compound 0.0316 µM, first compound 0.00316 µM
  viability, T/C: 79.1%
Second compound 0.0316 µM, first compound 0.01 µM
  viability, T/C: 79.6%
Second compound 0.0316 µM, first compound 0.0316 µM
  viability, T/C: 73%
Second compound 0.0316 µM, first compound 0.1 µM
  viability, T/C: 74.1%
Second compound 0.0316 µM, first compound 0.316 µM
  viability, T/C: 80.6%
Second compound 0.0316 µM, first compound 1 µM
  viability, T/C: 81.3%
Second compound 0.1 µM, first compound 0.00316 µM
  viability, T/C: 73.7%
Second compound 0.1 µM, first compound 0.01 µM
  viability, T/C: 59.7%
Second compound 0.1 µM, first compound 0.0316 µM
  viability, T/C: 58.8%
Second compound 0.1 µM, first compound 0.1 µM
  viability, T/C: 66.5%
Second compound 0.1 µM, first compound 0.316 µM
  viability, T/C: 52.3%
Second compound 0.1 µM, first compound 1 µM
  viability, T/C: 54.2%
Second compound 0.316 µM, first compound 0.00316 µM
  viability, T/C: 51.2%
Second compound 0.316 µM, first compound 0.01 µM
  viability, T/C: 47.4%
Second compound 0.316 µM, first compound 0.0316 µM
  viability, T/C: 51.5%
Second compound 0.316 µM, first compound 0.1 µM
  viability, T/C: 53.3%
Second compound 0.316 µM, first compound 0.316 µM
  viability, T/C: 50.8%
Second compound 0.316 µM, first compound 1 µM
  viability, T/C: 44.3%
Second compound 1 µM, first compound 0.00316 µM
  viability, T/C: 47%
Second compound 1 µM, first compound 0.01 µM
  viability, T/C: 43.9%
Second compound 1 µM, first compound 0.0316 µM
  viability, T/C: 43.5%
Second compound 1 µM, first compound 0.1 µM
  viability, T/C: 36.8%
Second compound 1 µM, first compound 0.316 µM
  viability, T/C: 40.5%
Second compound 1 µM, first compound 1 µM
  viability, T/C: 31.8%

## Cc1nc(NC(=O)N2CCCC2C(N)=O)sc1-c1ccnc(C(C)(C)C(F)(F)F)c1 (centres undefined)
Compound 0.0316 µM
  viability, T/C: 86.2% [middle of 8 runs]
Compound 0.1 µM
  viability, T/C: 88.9% [middle of 8 runs]
Compound 0.316 µM
  viability, T/C: 81% [middle of 8 runs]
Compound 1 µM
  viability, T/C: 62.9% [middle of 8 runs]
Compound 3.16 µM
  viability, T/C: 48% [middle of 8 runs]
Compound 10 µM
  viability, T/C: 35% [middle of 8 runs]
Compound alone, run of 06/12/2023
  IC50: 2.64 µM [middle of 8 runs]
